Source: a compilation of properties of binary mixtures (doi:10.1021/acs.jpcb.5b11900)

Assay: xn = mol fraction of the nth substance listed
Conditions: 101 kPa

CCC[NH3+].O=[N+]([O-])[O-] + CCCC[NH3+].O=[N+]([O-])[O-]
x1 = 0.5
Conditions	electrical conductivity [S/m]	viscosity [mPa·s]
298.15 K	0.606	80.6
303.15 K	0.729	65.7
308.15 K	0.866	54.2
318.15 K	1.18	38.3
333.15 K	–	24.4
338.15 K	–	21.3
348.15 K	–	16.7
353.15 K	–	14.9

CC[NH3+].O=[N+]([O-])[O-] + CC[N+](CC)(CC)CC.O=[N+]([O-])[O-]
x2 = 0
Conditions	electrical conductivity [S/m]	viscosity [mPa·s]
293.15 K	1.93	43.5
298.15 K	2.25	36.5
303.15 K	2.6	31
308.15 K	2.97	26.5
313.15 K	3.37	22.8
318.15 K	3.78	20
323.15 K	4.22	17.6
328.15 K	–	15.6
333.15 K	–	13.8
343.15 K	–	11.2
348.15 K	–	10.2
353.15 K	–	9.2

CC[NH3+].O=[N+]([O-])[O-] + CC[NH2+]CC.O=[N+]([O-])[O-]
x2 = 0
Conditions	electrical conductivity [S/m]	viscosity [mPa·s]
288.15 K	1.62	–
293.15 K	1.93	43.5
298.15 K	2.25	36.5
303.15 K	2.6	31
308.15 K	2.97	26.5
313.15 K	3.37	22.8
318.15 K	3.78	20
328.15 K	–	15.6
338.15 K	–	12.5
348.15 K	–	10.2
353.15 K	–	9.21

CCCC[NH3+].O=[N+]([O-])[O-] + CC[NH3+].O=[N+]([O-])[O-]
Conditions	electrical conductivity, x2 = 0.25 [S/m]	electrical conductivity, x2 = 0.5 [S/m]	electrical conductivity, x2 = 0.75 [S/m]	viscosity, x2 = 0.25 [mPa·s]	viscosity, x2 = 0.5 [mPa·s]	viscosity, x2 = 0.75 [mPa·s]
288.15 K	–	0.646	–	–	–	–
293.15 K	0.507	0.792	1.2	104.4	82.3	62
298.15 K	0.615	0.951	1.43	83.7	66.6	50.6
303.15 K	0.742	1.13	–	68.1	54.7	–
308.15 K	–	1.33	1.95	–	45.6	35.5
313.15 K	1.03	1.54	2.24	47	38.5	30.6
318.15 K	1.2	1.77	2.55	39.5	32.7	26
323.15 K	–	2.02	2.88	–	28.1	22.6
328.15 K	–	–	–	29	24.4	19.8
333.15 K	–	–	–	–	21.3	17.6
338.15 K	–	–	–	–	18.7	–
343.15 K	–	–	–	–	16.6	13.8
348.15 K	–	–	–	17.2	14.8	12.4
353.15 K	–	–	–	–	–	11.3

CCC[NH3+].O=[N+]([O-])[O-] + CC[NH3+].O=[N+]([O-])[O-]
x2 = 0.5
Conditions	electrical conductivity [S/m]	viscosity [mPa·s]
288.15 K	0.991	–
298.15 K	1.42	53
308.15 K	1.93	37.1
313.15 K	2.22	31.6
323.15 K	2.85	23.5
328.15 K	–	20.5
333.15 K	–	18.1
338.15 K	–	16
343.15 K	–	14.3
348.15 K	–	12.8
